# Tests used:
# Assay type in all cases: in vivo
# Set-up in all cases: key: 0 indicates no effect; 5 indicates complete kill
# Glycine max = experiment: Foliage treatment (Example 8); conditions: Plant No. 34 Glycine max
# Protocol: (§1) Aqueous solutions of Phosalacine (Na salt) at different concentrations were applied at a rate of 1500 liters per hectare to naturally occurring plants or plants which were cultured on plates as shown in the following Table at certain stages of growth. […]
# Oxalis corniculata = experiment: Foliage treatment (Example 8); conditions: Plant No. 35 Oxalis corniculata
# Protocol: as §1
# Miscanthus sinensis = experiment: Foliage treatment (Example 8); conditions: Plant No. 5 Miscanthus sinensis
# Protocol: as §1
# Allium fistulosum = experiment: Foliage treatment (Example 8); conditions: Plant No. 27 Allium fistulosum
# Protocol: as §1
# Cucumis sativus = experiment: Foliage treatment (Example 8); conditions: Plant No. 33 Cucumis sativus
# Protocol: as §1
# Brassica oleracea = experiment: Foliage treatment (Example 8); conditions: Plant No. 28 Brassica oleracea
# Protocol: as §1
# [1] = test system: Eleucine indica var. carocana; experiment: Foliage treatment (Example 8); conditions: Plant No. 24 Eleucine indica var. carocana
# Protocol: as §1
# Euphonia supina = experiment: Foliage treatment (Example 8); conditions: Plant No. 36 Euphonia supina
# Protocol: as §1
# Arctium lappa = experiment: Foliage treatment (Example 8); conditions: Plant No. 30 Arctium lappa, 14 days
# Protocol: as §1
# Artemisia princeps = experiment: Foliage treatment (Example 8); conditions: Plant No. 1 Artemisia princeps
# Protocol: as §1
# Smilax china = experiment: Foliage treatment of naturally growing weeds and brush (Example 9); conditions: Plant No. 17 Smilax china, One month
# Excerpt: (§2) Aqueous solutions of Phosalacine (Na salt) at different concentrations and 0.1% of octylphenylpolyoxy ethanol as surfactant were applied to the area where various weeds and brush were naturally growing at a rate of 1500 liter per hectare. One month after the foliage treatment, damage to weeds and brush was visually assessed on a scale of from 0 to 5 where 0 indicates no effect and 5 indicates complete kill as hereinbefore defined.
# Castanea crenata = experiment: as above; conditions: Plant No. 8 Castanea crenata, One month
# Excerpt: as §2
# Rubus palmatus = experiment: as above; conditions: Plant No. 18 Rubus palmatus, One month
# Excerpt: as §2
# Viburnum dilatatum = experiment: as above; conditions: Plant No. 21 Viburnum dilatatum, One month
# Excerpt: as §2
# [2] = test system: various weeds and brush (overall evaluation); experiment: as above; conditions: OE overall evaluation, One month
# Excerpt: as §2
# Pteridium aquilinum = experiment: as above; conditions: Plant No. 20 Pteridium aquilinum, One month
# Excerpt: as §2
# Zanthoxylum piperitum = experiment: as above; conditions: Plant No. 19 Zanthoxylum piperitum, One month
# Excerpt: as §2
structure (smiles),measurement,setting,value
"C[C@H](NC(=O)[C@H](C)NC(=O)[C@@H](N)CCP(C)(=O)[O-])C(=O)O.[Na+] [SF, reference compound]","damage to the plants, scale 0 to 5","Glycine max; 0.1%, 7 days",3
same,"damage to the plants, scale 0 to 5","Glycine max; 0.1%, 14 days",4
same,"damage to the plants, scale 0 to 5","Glycine max; 0.2%, 7 days",4
same,"damage to the plants, scale 0 to 5","Glycine max; 0.2%, 14 days",5
same,"damage to the plants, scale 0 to 5","Oxalis corniculata; 0.1%, 7 days",3
same,"damage to the plants, scale 0 to 5","Oxalis corniculata; 0.1%, 14 days",4
same,"damage to the plants, scale 0 to 5","Oxalis corniculata; 0.2%, 7 days",4
same,"damage to the plants, scale 0 to 5","Oxalis corniculata; 0.2%, 14 days",5
same,"damage to the plants, scale 0 to 5","Miscanthus sinensis; 0.1%, 7 days",3
same,"damage to the plants, scale 0 to 5","Miscanthus sinensis; 0.1%, 14 days",4
same,"damage to the plants, scale 0 to 5","Miscanthus sinensis; 0.2%, 7 days",4
same,"damage to the plants, scale 0 to 5","Miscanthus sinensis; 0.2%, 14 days",5
same,"damage to the plants, scale 0 to 5","Allium fistulosum; 0.1%, 7 days",3
same,"damage to the plants, scale 0 to 5","Allium fistulosum; 0.1%, 14 days",4
same,"damage to the plants, scale 0 to 5","Allium fistulosum; 0.2%, 7 days",5
same,"damage to the plants, scale 0 to 5","Allium fistulosum; 0.2%, 14 days",5
same,"damage to the plants, scale 0 to 5","Cucumis sativus; 0.1%, 7 days",3
same,"damage to the plants, scale 0 to 5","Cucumis sativus; 0.1%, 14 days",4
same,"damage to the plants, scale 0 to 5","Cucumis sativus; 0.2%, 7 days",4
same,"damage to the plants, scale 0 to 5","Cucumis sativus; 0.2%, 14 days",5
same,"damage to the plants, scale 0 to 5","Brassica oleracea; 0.1%, 7 days",3
same,"damage to the plants, scale 0 to 5","Brassica oleracea; 0.1%, 14 days",4
same,"damage to the plants, scale 0 to 5","Brassica oleracea; 0.2%, 7 days",4
same,"damage to the plants, scale 0 to 5","Brassica oleracea; 0.2%, 14 days",5
same,"damage to the plants, scale 0 to 5","[1]; 0.1%, 7 days",3
same,"damage to the plants, scale 0 to 5","[1]; 0.1%, 14 days",4
same,"damage to the plants, scale 0 to 5","[1]; 0.2%, 7 days",4
same,"damage to the plants, scale 0 to 5","[1]; 0.2%, 14 days",5
same,"damage to the plants, scale 0 to 5","Euphonia supina; 0.1%, 7 days",3
same,"damage to the plants, scale 0 to 5","Euphonia supina; 0.1%, 14 days",4
same,"damage to the plants, scale 0 to 5","Euphonia supina; 0.2%, 7 days",4
same,"damage to the plants, scale 0 to 5","Euphonia supina; 0.2%, 14 days",5
same,"damage to the plants, scale 0 to 5",Arctium lappa; 0.1%,4
same,"damage to the plants, scale 0 to 5",Arctium lappa; 0.2%,5
same,"damage to the plants, scale 0 to 5","Artemisia princeps; 0.1%, 7 days",3
same,"damage to the plants, scale 0 to 5","Artemisia princeps; 0.1%, 14 days",4
same,"damage to the plants, scale 0 to 5","Artemisia princeps; 0.2%, 7 days",4
same,"damage to the plants, scale 0 to 5","Artemisia princeps; 0.2%, 14 days",5
same,"damage to weeds and brush, scale 0 to 5",Smilax china; 0.05%,2
same,"damage to weeds and brush, scale 0 to 5",Smilax china; 0.1%,4
same,"damage to weeds and brush, scale 0 to 5",Smilax china; 0.2%,5
same,"damage to weeds and brush, scale 0 to 5",Castanea crenata; 0.05%,2
same,"damage to weeds and brush, scale 0 to 5",Castanea crenata; 0.1%,4
same,"damage to weeds and brush, scale 0 to 5",Castanea crenata; 0.2%,5
same,"damage to weeds and brush, scale 0 to 5",Rubus palmatus; 0.05%,2
same,"damage to weeds and brush, scale 0 to 5",Rubus palmatus; 0.1%,4
same,"damage to weeds and brush, scale 0 to 5",Rubus palmatus; 0.2%,5
same,"damage to weeds and brush, scale 0 to 5",Viburnum dilatatum; 0.05%,2
same,"damage to weeds and brush, scale 0 to 5",Viburnum dilatatum; 0.1%,4
same,"damage to weeds and brush, scale 0 to 5",Viburnum dilatatum; 0.2%,5
same,"damage to weeds and brush, scale 0 to 5",[2]; 0.05%,2
same,"damage to weeds and brush, scale 0 to 5",[2]; 0.1%,4
same,"damage to weeds and brush, scale 0 to 5",[2]; 0.2%,5
same,"damage to weeds and brush, scale 0 to 5",Pteridium aquilinum; 0.05%,2
same,"damage to weeds and brush, scale 0 to 5",Pteridium aquilinum; 0.1%,4
same,"damage to weeds and brush, scale 0 to 5",Pteridium aquilinum; 0.2%,5
same,"damage to weeds and brush, scale 0 to 5",Zanthoxylum piperitum; 0.05%,2
same,"damage to weeds and brush, scale 0 to 5",Zanthoxylum piperitum; 0.1%,4
same,"damage to weeds and brush, scale 0 to 5",Zanthoxylum piperitum; 0.2%,5
